According to patent US7910626B2, “Use of S1P receptor agonists in heart diseases” (Novartis AG, priority 2002, dated 2011):

How the values were obtained:
chronic heart failure = assay: Chronic heart failure in rabbits after large myocardial infarction; assay type: in vivo; settings: heart failure induced by large myocardial infarction, i.v. at a dose of from 0.1 to 10 mg/kg
Experimental: The effect of a S1P receptor agonist, e.g. a compound of formula I on chronic heart failure is tested in rabbits where heart failure is induced as a consequence of a large myocardial infarction (R P. Hof et al. J. Cardiovasc. Pharmacol., 1991, 18,361-368). The changes of atrial natriuretic factor or baroflex sensitivity are a reliable indicator of the status of the heart failure in this animal model.

[1] = Acute toxicity p.o. in rats; settings: rat, in vivo, po
Experimental: (§1) S1P receptor agonists are well tolerated at dosages required for use in accordance with the present invention. For example, FTY720 has an acute LD50 >10 mg/kg p.o. in rats and monkeys.

[2] = Acute toxicity p.o. in monkeys; settings: monkey, in vivo, po
Experimental: as §1

In the case of CCCCCCCCc1ccc(CCC(N)(CO)CO)cc1 [Compound A, 2-amino-2-[2-(4-octylphenyl)ethyl]propane-1,3-diol], the “effect on the heart failure” value (chronic heart failure) is reported as “beneficial effect”, the LD50 [1] is reported as > 10 mg/kg and the LD50 [2] is reported as > 10 mg/kg.
